Broadly, the Cmax is the highest concentration seen after dosing. Usually Tmax stands for the time from dosing to the highest level.

This is an account of results in publication PMC12299926 (Pharmaceuticals, 2025).

A short description of data set [1]: Plasma pharmacokinetics after per os enrofloxacin alone or with per os propolis (HPLC-FL, non-compartmental analysis). The note with it: rabbit plasma, CPR = metabolite of ENR.
Experimental: (§1) This study was carried out under ideal conditions for rabbits, with ad libitum food and water. A total of 12 New Zealand White female rabbits, aged 4–6 months and weighing 2500–3000 g, were used in this study. The rabbits were randomly allocated into two groups, and each group consisted of six animals in the first phase of the study. This study was performed according to a two-phase longitudinal pharmacokinetic design. A 40-day elimination period was allowed between the treatments.
(§2) The collected blood samples were centrifuged at 13,000 rpm for 10 min, and plasma was removed and stored at −20 °C until HPLC analysis.
The mobile phase consisted of acetonitrile, and methanol (50:50) and potassium phosphate monobasic (20 mM, pH: 3.40) were delivered in an isocratic fashion at a flow rate of 1 mL/min. The fluorescence detector (FL, G1321B, Agilent, Germany) was at an excitation wavelength of 280 nm and an emission wavelength of 450 nm. […]
(§3) The plasma concentration–time curves obtained after each treatment in the individual animals were fitted with the WinNonlin software program (Version 5.2, Pharsight Corporation, Mountain View, CA, USA). The pharmacokinetic parameters for each animal were analyzed using non-compartmental model analysis. […]
The mean residence time (MRT) was calculated as follows: MRT0→∞ = AUMC0→∞/AUC0→∞ […]
A short description of data set [2]: Observation of systemic or local adverse effects during the study. The note with it: rabbits; enrofloxacin per os 20 mg/kg or IM 10 mg/kg, propolis 100 mg resin/kg per os.
Experimental: The significance of the results was analyzed pharmacokinetically.
as §1
A short description of data set [3]: Plasma pharmacokinetics after intramuscular enrofloxacin alone or with per os propolis (HPLC-FL, non-compartmental analysis). Particulars: after ENR 10 mg/kg IM alone.
Experimental: as §1, §2
The mobile phase consisted of acetonitrile, and methanol (50:50) and potassium phosphate monobasic (20 mM, pH: 3.40) were delivered in an isocratic fashion at a flow rate of 1 mL/min. The fluorescence detector (FL, G1321B, Agilent, Germany) was at an excitation wavelength of 280 nm and an emission wavelength of 450 nm. The Photo Diode Array Detector (DAD) was set at a wavelength of 279 nm for marbofloxacin (I.S.) analysis. The injection volume was 50 µL throughout the analysis, and a chromatographic analysis was completed in 10 min for plasma samples following injection. […]
as §3
The mean residence time (MRT) was calculated as follows: MRT0→∞ = AUMC0→∞/AUC0→∞
Terminal half-life (T1/2λz) was calculated as follows: T1/2λz= −ln(2)/λz where λz represents the first-order rate constant associated with the terminal (log-linear) portion of the curve.
The pharmacokinetic parameters are reported as mean (±SD). Harmonic means were calculated for T1/2λz and MRT0–∞. […] Non-normally distributed data were analyzed by a non-parametric Mann–Whitney U-Test; meanwhile, normally distributed data were compared by independent t-test using SPSS Statistics 23.0 (IBM Corp, Armonk, NY, USA). […]
For data set [4] the following is noted: 16 volunteers; subtherapeutic doses with propolis (375 mg/day); ref [21]; cited from earlier work.
For data set [5] the following is noted: propolis coadministered with duloxetine; ref [19]; cited from earlier work.

Consider `O=C(O)c1cn(C2CC2)c2cc(N3CCNCC3)c(F)cc2c1=O` [CPR + PP], for which, in data set [1] (after ENR 20 mg/kg per os with propolis 100 mg resin/kg), the “AUMC0-∞ (dose-normalized)” value came to 63.99±17.18 µg.h2/ml. As to `O=C(O)c1cn(C2CC2)c2cc(N3CCNCC3)c(F)cc2c1=O` [CPR, ciprofloxacin], the “AUMC0-∞ (dose-normalized)” value in data set [1] (after ENR 20 mg/kg per os alone) was determined as 27.72±13.72 µg.h2/ml.

For `CCN1CCN(c2cc3c(cc2F)c(=O)c(C(=O)O)cn3C2CC2)CC1` [ENR, enrofloxacin], in data set [2], the “systemic or local adverse effects” value was “neither systemic nor local adverse effects were observed”. The “AUMC0-∞ (dose-normalized)” value in data set [3] (dose-normalized, rabbit plasma, CPR = metabolite of ENR) was found to be 59.21±18.78 µg.h2/ml. For the same molecule, the maximum concentration (Cmax) in data set [3] (female, New Zealand White, rabbit, plasma, im, 10 mg/kg, Cmax, n = 6, CPR = metabolite of ENR) is 2980 ± 350 ng/mL. Besides, the time of peak concentration (Tmax) in data set [3] (female, New Zealand White, rabbit, plasma, im, 10 mg/kg, Tmax, n = 6, CPR = metabolite of ENR) stood at 28.2 ± 4.8 min.

Consider `Cn1c(=O)c2c(ncn2C)n(C)c1=O` [caffeine], for which the “change of AUC with propolis” value in data set [4] is given as “decreased”. As for `CNCC[C@H](Oc1cccc2ccccc12)c1cccs1` [duloxetine], in data set [5], the “increase in AUC with propolis coadministration” value is listed as 20–30% and the “increase in Cmax with propolis coadministration” value is 20–30%.

For the molecule `CCCCc1nc(Cl)c(CO)n1Cc1ccc(-c2ccccc2-c2nn[nH]n2)cc1` [losartan], the “change of AUC with propolis” value in data set [4] is reported as “decreased”.

Turning to `Cc1ncc2n1-c1ccc(Cl)cc1C(c1ccccc1F)=NC2` [midazolam], the “change of AUC with propolis” value in data set [4] is listed as “increased”. `COc1ccc2[nH]c([S+]([O-])Cc3ncc(C)c(OC)c3C)nc2c1` (stereo not drawn) [omeprazole]: the “change of AUC with propolis” value in data set [4] is listed as “increased”.
